According to article PMC6625891 (ACS infectious diseases, 2019):
≈ marks a conversion by molar mass, not a printed value. Where “and” joins values, the source holds several entries; their conditions need not be identical. Equal entries are not always repeated. Where two headings read alike, the source gives them in different places.

Key:
MRSA (ATCC BAA-1762) [1] = assay: Post-antibiotic effect; details: 1 h exposure
[2] = tested on: MRSA (ATCC BAA-1762) resistant mutants; assay: microbe, parasite or virus in culture; details: Staphylococcus aureus, ATCCBAA1762|MRSA, read-out: MIC of resistant colonies
[3] = tested on: MRSA (ATCC BAA-1762) resistant mutants; details: for MIC shift: vs wild-type MRSA
S. aureus = details: previously reported; cited from earlier work
saLeuRS = details: read-out: IC50 (LeuRS); previously reported; ref 25 (Xia et al.); cited from earlier work
MRSA (ATCC BAA-1762) [4] = assay: Time-kill experiments
[5] = Cytotoxicity, MTT cell viability assay; assay type: cell-based; details: monkey, vero cells
[6] = molecular target: T1, S. aureus LeuRS (saLeuRS) (Staphylococcus aureus, UniProt Q2FXH2); assay: radiolabeled LeuRS aminoacylation assay; assay type: biochemical
T1 sequence (Q2FXH2 1-805): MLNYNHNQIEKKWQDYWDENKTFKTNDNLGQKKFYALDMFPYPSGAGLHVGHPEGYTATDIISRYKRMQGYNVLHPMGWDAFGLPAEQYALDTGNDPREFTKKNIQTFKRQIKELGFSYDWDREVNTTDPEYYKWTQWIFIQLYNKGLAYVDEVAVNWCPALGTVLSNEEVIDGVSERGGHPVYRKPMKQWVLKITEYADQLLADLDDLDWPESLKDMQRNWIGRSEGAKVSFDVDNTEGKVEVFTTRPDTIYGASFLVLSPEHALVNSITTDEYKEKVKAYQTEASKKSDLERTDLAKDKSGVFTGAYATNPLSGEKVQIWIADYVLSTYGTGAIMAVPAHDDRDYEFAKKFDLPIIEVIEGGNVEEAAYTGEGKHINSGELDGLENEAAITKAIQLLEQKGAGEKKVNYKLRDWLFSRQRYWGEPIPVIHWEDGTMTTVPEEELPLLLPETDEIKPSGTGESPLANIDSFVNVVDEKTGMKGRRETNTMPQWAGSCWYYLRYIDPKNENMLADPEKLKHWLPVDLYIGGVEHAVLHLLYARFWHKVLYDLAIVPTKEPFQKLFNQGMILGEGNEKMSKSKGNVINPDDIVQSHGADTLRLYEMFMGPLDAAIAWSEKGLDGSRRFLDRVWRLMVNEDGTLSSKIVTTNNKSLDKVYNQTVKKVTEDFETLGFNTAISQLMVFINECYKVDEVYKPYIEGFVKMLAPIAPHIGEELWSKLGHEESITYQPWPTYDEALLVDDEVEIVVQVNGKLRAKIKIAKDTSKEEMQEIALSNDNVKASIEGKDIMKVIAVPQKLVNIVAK

Vero cells = assay: Cytotoxicity, MTT cell viability assay; assay type: cell-based; details: Vero cells, 24 h, MTT
MRSA ATCC BAA-1762 = assay: MIC by broth microdilution; assay type: cell-based, Staphylococcus aureus
M. tuberculosis LeuRS = details: read-out: M. tuberculosis LeuRS IC50; cited from earlier work
[7] = tested on: Mycobacterium tuberculosis; details: M. tuberculosis; cited from earlier work
Escherichia coli LeuRS = details: read-out: IC50 (E. coli LeuRS); binds to the editing site; cited from earlier work
Gram-negative pathogens = details: cited from earlier work

SMILES: O=[N+]([O-])c1ccc(S(=O)(=O)Nc2ccc3c(c2)B(O)OC3)cc1 [PT638]
- duration of the post-antibiotic effect (MRSA (ATCC BAA-1762) [1]; 0.25 × MIC): 0.2 h
- duration of the post-antibiotic effect (MRSA (ATCC BAA-1762) [1]; 4 × MIC): 1.5 h
- MIC [2]: ≥ 3.12 µg/mL
- MIC shift ([3]; mutant strain 1, D343Y saLeuRS): 16-fold
- MIC shift ([3]; mutant strain 2, G303S saLeuRS): 8-fold
- MIC shift ([3]; mutant strain 3, F233I saLeuRS): 8-fold
- MIC of resistant colonies relative to parent strain ([3]; three colonies picked): at least 8 times
- MIC against S. aureus (S. aureus): < 0.2 µg/mL
- IC50 (saLeuRS): > 200 µM
- reduction in cell numbers over 8 h (MRSA (ATCC BAA-1762) [4]; 1 times the MIC): 1.8 log10 cfu/mL
- reduction in cell numbers over 8 h (MRSA (ATCC BAA-1762) [4]; 4 times the MIC): 2.2 log10 cfu/mL
- reduction in cell numbers over 8 h (MRSA (ATCC BAA-1762) [4]; 16 times the MIC): 2.7 log10 cfu/mL
- type of antibacterial activity in time-kill (MRSA (ATCC BAA-1762) [4]; over the course of 8 h): bacteriostatic
- CC50 at 24 h [5]: ≥ 100 µg/mL
- IC50 [6]: > 100 µM
- IC50 (saLeuRS aminoacylation) ([6]; 7 nM saLeuRS, 20 min pre-incubation, triplicate): did not inhibit saLeuRS

SMILES: Nc1ccc(S(=O)(=O)Nc2ccc3c(c2)B(O)OC3)cc1 [PT662]
- Cytotoxicity Vero cells (IC50) (Vero cells): ≥100 µg/mL
- fold increase in MIC relative to PT638 (MRSA ATCC BAA-1762; MRSA ATCC BAA-1762): 8 fold
- MIC MRSA (MRSA ATCC BAA-1762; MRSA ATCC BAA-1762, broth microdilution): 3.1 µg/mL and 3.125 µg/mL

SMILES: CCOc1ccc(Cl)c2c1B(O)OC2CN (centres unmarked) [AN6426]
- IC50 (M. tuberculosis LeuRS): 90 nM
- MIC [7]: 0.13 µM (≈ 0.0314 µg/mL)

SMILES: NC[C@H]1OB(O)c2c(OCCCO)cccc21 [AN3365]
- IC50 (Escherichia coli LeuRS): 310 nM
- MIC (Gram-negative pathogens): 0.5 to 4 µg/mL
